Experimental data: US20240358733A1, “APPLICATION OF TYPHANEOSIDE IN PREPARATION OF MEDICINE FOR URIC ACID-LOWERING AND/OR KIDNEY INJURY” (Institute of Chinese Materia Medica, China Academy of …, priority 2023, published 2024)

Legend:
[1] = tested on: rats with hyperuricemia; assay: Blood uric acid level in rats with adenine combined with ethambutol-induced hyperuricemia; assay type: in vivo, rat; details: for Blood uric acid: serum, mean±SD, model group 144.43 ± 31.20
Protocol: There were 48 Male SPF grade SD rats, weighing 200-220 g, purchased from Beijing Vital River Laboratory Animal Technology Co., Ltd., license No. SCXK (Beijing) 2016-0006. The animals were housed in a barrier environment animal laboratory, with automatic temperature control (temperature 20-26° C.), relative humidity 40-70%, and full fresh air. Artificial light was adopted with a 12-hour light-dark cycle. Group experiments were started after 1 day of acclimatization. Animals were fed with standard rat pellet feed, provided by Beijing Keao Xieli Feed Co. Ltd., with purified water.
The rats were randomly divided into 6 groups of 8 rats each, which were control group, model group, typhaneoside low dose group (25 mg/kg) and typhaneoside high dose group (50 mg/kg), isorhamnetin low dose group (25 mg/kg) and isorhamnetin high dose group (50 mg/kg).
Adenine was purchased from Sigma-Aldrich (USA), and 0.5% CMC-Na was used to formulate adenine into a suspension at a concentration of 20 mg/mL, ready-to-use, with an administration volume of 5 mL/kg and a dosage of 100 mg/kg. Ethambutol hydrochloride tablets were purchased from Chengdu Jinhua Pharmaceutical Co., Ltd, and 0.5% CMC-Na was used to formulate ethambutol hydrochloride tablets into a suspension at a concentration of 50 mg/ml, ready-to-use, with an administration volume of 5 mL/kg and a dosage of 250 mg/kg. […]
Observation and detection indicators: fasting for 16 hours after the last administration, blood was collected from the abdominal aorta of rats in each group, centrifuged at 3500 rpm for 15 minutes after standing, separated and collected serum, and the content of uric acid in the serum was measured using an Automatic Chemical Analysis.
Statistical methods: data were expressed as mean±standard deviation (x±S) and analyzed by one-way ANOVA. […]

[2] = tested on: rats with hyperuricemic kidney injury; assay: Kidney function biochemical indicators (serum BUN, SCr) in rats with hyperuricemic kidney injury; assay type: in vivo, rat; details: for BUN / SCr: serum; for BUN: model group 11.87 ± 2.27; for SCr: model group 49.09 ± 9.42
Description: (§1) The establishment of the model as well as the experimental grouping and administration were the same as in Example 1.
(1) Kidney function biochemical indicators detection: the method of blood sampling and serum collection was the same as in Example 1, and an Automatic Chemical Analysis was used to detect the content of serum creatinine (SCr) by using the creatine oxidase method, and to detect the content of blood urea nitrogen (BUN) by using the urease method and the kinetic method.

[3] = tested on: rats with hyperuricemia; assay: Urate deposition in rat kidney tissues, hexamine silver staining; assay type: in vivo; details: FIG. 1, hexamine silver staining, 25 and 50 mg/kg, in words
Protocol: as §1
(§2) (2) Pathological examination of kidney tissue: anesthetize rats, dissect, and remove kidney tissue. The kidney tissues were fixed with 10% neutral formalin. After sufficient fixation, sampling, gradient dehydration, xylene transparency, paraffin embedding, and preparation of 3 μm paraffin sections were performed according to routine procedures. The kidney tissue lesions as well as urate deposition in the kidney tissues were examined by light microscopy using HE (hematoxylin & eosin) staining and hexamine silver staining, respectively.

[4] = tested on: rats with hyperuricemia; assay: Pathological examination of rat kidney tissue, HE staining; assay type: in vivo; details: FIG. 2, HE staining, in words
Protocol: as §1, §2

[5] = high dose 50 mg/kg by gavage once a day for 7 days
[6] = low dose 25 mg/kg by gavage once a day for 7 days

## COc1cc(-c2oc3cc(O)cc(O)c3c(=O)c2O)ccc1O [Isorhamnetin, isorhamnetin]
[1]; different doses (25 and 50 mg/kg), in words
  Effect on the blood uric acid level compared with the model group: did not show a significant reducing effect
[1]; [5]
  Blood uric acid: 105.74 ± 42.62 µmol/L
[1]; [6]
  Blood uric acid: 118.56 ± 26.76 µmol/L
[2]; 25 and 50 mg/kg, in words
  Serum BUN level compared with the model group: did not show significant reduction
  Serum SCr level compared with the model group: did not show significant reduction
[2]; [5]
  BUN: 8.26 ± 3.99 mmol/L
  SCr: 47.12 ± 12.00 µmol/L
[2]; [6]
  BUN: 7.90 ± 2.48 mmol/L
  SCr: 41.66 ± 5.72 µmol/L
[3]
  Deposited urate crystals in kidney tissue compared with the model group: only slightly reduced
[4]; high dose group 50 mg/kg
  Kidney tissue pathological changes: severe renal tubular dilatation and epithelial cell detachment were still observed
[4]; low dose group 25 mg/kg
  Kidney tissue pathological changes: severe renal tubular dilatation and epithelial cell detachment were still observed
